Measured values: patent publication US10377778B2, “Lead and thorium compounds” (Sciencons AS, priority 2017, dated 2019)

Legend:
[1] = Stability testing of ^212Pb-labeled ligands in vitro (TLC radiochemical purity in PBS and FBS); format: physicochemical; conditions: 37° C.
Protocol: (§1) Thin layer chromatography (TLC) was performed using chromatography strips (model #150-772, Biodex Medical Systems Inc, Shirley, N.Y., USA). A formulation buffer (FB) consisting of 7.5% human serum albumin and 5 mM EDTA in DPBS and adjusted to approximately pH 7 with NaOH was mixed with the antibody conjugates in ratio 2:1 for at least 5 minutes before application to the strips to determine free radionuclide. A small beaker with about 0.5 ml of 0.9% NaCl was used to place strips with a sample spot in. To the strip was typically added 1-4 μl of sample at approximately 10% above the bottom of the strip. After the solvent front had moved to about 20% from the top of the strip, the strip was cut in half and each half was placed in a 5 ml test tube for counting. In this system radiolabeled ligand stays at the bottom half while radionuclide complexed with EDTA migrates to the upper half. It was verified that free cations of both ^212Pb and ^177Lu would complex with EDTA and moved to the top.
TLC analyses were performed at 1 h, 4 h, 24 h and 48 h of incubation. […]

[2] = Radiolytic stability: TLC measured RCP when kept in ^224Ra solution; format: physicochemical
Protocol: as §1
Initial activity in the solution was about 5 MBq/ml causing an absorbed radiation dose to the solution of about 1.8 Gy after 24 h and 3.3 Gy after 48 hours. The data (Table 2) indicate a slight decline at the longest exposure time but in general a relatively strong radiolytic resistance of the ligand was observed, which is compatible with centralized production and shipment to the end user ^224Ra-based generator solution with or without removal of ^224Ra prior to the administration of product.

[3] = test system: C4-2 PSMA positive human prostate cells xenografts; test: Comparative therapy experiment in nude mice with C4-2 xenografts; format: in vivo; conditions: 52 MBq ^177Lu-PSMA-617 or 320 kBq ^212Pb-ligand 1
Protocol: Male nude mice were inoculated in the flanks with C4-2 PSMA positive human prostate cells and 2 weeks later when tumors were 5-7 mm in diameters. Groups of 8 animals each received saline, 52 MBq of ^177Lu-PSMA-617 or 320 kBq of ^212Pb-p-SCN-Bn-TCMC-PSMA ligand 1. Animals were sacrificed when tumor size reached 20 mm due to animal welfare requirements. […] For ^212Pb the effective half-life was assumed to be 10.6 h, 10% of injected dose per gram decays in tumor and 100% of radiation in a tumor is absorbed in the tumor, 100% retention of ^212Pb and daughters in the tumors and 8 MeV radiation energy per decay. The tumor dosimetry for the injected activities gave on average 35.9 Gy to tumors for ^177Lu-PSMA-617 and 2.06 Gy to tumors for ^212Pb-p-SCN-Bn-TCMC-PSMA ligand 1 groups respectively.

NC(=O)CN1CCN(CC(N)=O)CCN(CC(N)=O)C(Cc2ccc(NC(=S)NCC3CCC(C(=O)NC(Cc4ccc5ccccc5c4)C(=O)NCCCCC(NC(=O)NC(CCC(=O)O)C(=O)O)C(=O)O)CC3)cc2)CN(CC(N)=O)CC1.[212Pb+2] (stereo not drawn) [^212Pb-p-SCN-Bn-TCMC-PSMA ligand 1]
Radiochemical purity ([1]; FBS, 1 h since start of incubation, in ^224Ra/^212Pb solution): 93.50%
Radiochemical purity ([1]; FBS, 4 h): 94.18%
Radiochemical purity ([1]; FBS, 24 h): 93.54%
Radiochemical purity ([1]; FBS, 48 h): 90.81%
Radiochemical purity ([1]; PBS, 1 h since start of incubation, in ^224Ra/^212Pb solution): 93.26%
Radiochemical purity ([1]; PBS, 4 h): 95.04%
Radiochemical purity ([1]; PBS, 24 h): 95.00%
Radiochemical purity ([1]; PBS, 48 h): 95.11%
TLC measured RCP ([2]; kept in ^224Ra solution 0.5 h): 93.81%
TLC measured RCP ([2]; kept in ^224Ra solution 1 h): 92.84%
TLC measured RCP ([2]; kept in ^224Ra solution 4 h): 94.75%
TLC measured RCP ([2]; kept in ^224Ra solution 24 h): 94.85%
TLC measured RCP ([2]; kept in ^224Ra solution 48 h): 94.85%
Survival at day 30 after treatment ([3]; groups of 8, saline group 0%): 75%
Median survival ([3]; saline group 15 days): > 30 days
